The results in this text go back to patent publication US12692253B2, “Antimicrobial compounds and methods” (Curza Global, LLC, priority 2019, dated 2026).

Assay [1] deals with E. coli S30 extract (bacterial protein synthesis). The assay is described as follows: E. coli S30 extract coupled transcription-translation luciferase assay (inhibition of bacterial protein synthesis). The format is biochemical. To be noted: read-out: S30 IC50 (μM/% inhib.). The method, boiled down: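 Coupled transcription-translation in E. coli S30 circular-DNA extract expressing luciferase from pBESTluc, with 8-point 2-fold compound dilutions; 1 hour at 37 °C, stopped at 4 °C. Luminescence read; % inhibition versus no-inhibitor wells, no-DNA wells as background.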

Assay [2] addresses Rabbit Reticulocyte Lysate (eukaryotic protein synthesis). The assay is described as follows: Rabbit reticulocyte lysate luciferase assay (inhibition of eukaryotic protein synthesis). The format is biochemical. The following applies: read-out: Rabbit reticulocyte IC50 (μM/% inhib.). The method, boiled down:
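In vitro translation of luciferase control RNA in nuclease-treated rabbit reticulocyte lysate with amino acid mixture, compounds in 2-fold serial dilution, 90 minutes at 30° C. Luminescence read after luciferase reagent; % inhibition relative to water no-inhibitor controls, with no-RNA background wells.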

A further assay concerns E. faecalis (Ef). Nature of the assay: Broth microdilution minimum inhibitory concentration (MIC), CLSI. The format is cell-based. The following applies: for MIC: Enterococcus faecalis, read-out: Ef + bicarb MIC. A digest of the protocol: (§1)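 Two-fold serial dilutions in CAMHB, optionally with sodium bicarbonate (6.25 or 25 mM final) or heat-inactivated human serum (0-50%), 8 concentrations, triplicate. Inoculum 5×10^4 CFU/well from log-phase cultures grown at 35±2 °C to 0.5 McFarland.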

The test system of a further assay is S. aureus (Sa). Described as above. The format is cell-based. The following applies: for MIC: Staphylococcus aureus, read-out: Sa + bicarb MIC. A digest of the protocol: as §1
The subject of the next assay is A. baumannn (Ab). Described as above. Format: cell-based. To be noted: for MIC: read-out: Ab + bicarb MIC. The method, boiled down:
as §1

In another assay the test system is P. aeruginosa (Pa). The assay is described as above. Format: cell-based. To be noted: for MIC: Pseudomonas aeruginosa, read-out: Pa MIC + bicarb. The method, boiled down: as §1
A further assay deals with E. coli (Ec). The description is as above. Format: cell-based. The following applies: for MIC: Escherichia coli, read-out: E. coli + bicarb MIC. The method, boiled down: as §1
Setting [3] is: class by IC50 or % inhibition @ 1 μM.
The mark [4] stands for this setting: growth medium supplemented with sodium bicarbonate.
[5] abbreviates: A. baumannii, growth medium supplemented with sodium bicarbonate.
Where [6] appears, read: growth medium with sodium bicarbonate.
[7] abbreviates: A. baumannn, growth medium with sodium bicarbonate.

SMILES strings stand for the structures. Like-named read-outs stand apart in the source and are kept apart here.

In the case of `CC(C)(N)C(=O)N1CCN(C(=O)Nc2ccn(-c3ccc(CCN4CC5(CNC5)C4)cc3)c(=O)n2)CC1` [Compound 160], the IC50 in assay [1] (setting [3]) and in assay [2] (setting [3]) was at least 1 µM throughout. The MIC in the assay on E. faecalis (Ef) (setting [4]) is over 32 µg/mL; in the assay with S. aureus (Sa) (setting [4]) it was over 32 µg/mL; with A. baumannn (Ab) (Acinetobacter baumannii), over 32 µg/mL; in the assay on P. aeruginosa (Pa) (setting [4]) it was over 32 µg/mL; in the assay on E. coli (Ec) (setting [4]) it was under 8 µg/mL.

In the case of `CC(C)(N)C(=O)N1CCN(C(=O)Nc2ccn(-c3ccc(CCN4C5CCC4CC(N)C5)cc3)c(=O)n2)CC1` (centres unmarked) [Compound 108], the IC50 in assay [1] (setting [3]) and in assay [2] (setting [3]) was at least 1 µM throughout. Further, the “Ef + bicarb MIC” value in the assay on E. faecalis (Ef) (setting [4]) is listed as “+ (An MIC (μg/mL) value that is 32 μg/mL or greater)”. Also, the “Sa + bicarb MIC” value in the assay with S. aureus (Sa) (setting [4]) is “+++ (An MIC value (μg/mL) that is less than 8 μg/mL)”. The “Ab + bicarb MIC” value in the assay with A. baumannn (Ab) (setting [5]) is recorded as “+ (An MIC (μg/mL) value that is 32 μg/mL or greater)”. The “Pa MIC + bicarb” value with P. aeruginosa (Pa) (setting [4]) was “+ (An MIC (μg/mL) value that is 32 μg/mL or greater)”. Further, in the assay on E. coli (Ec) (setting [4]), the “E. coli + bicarb MIC” value is “+++ (An MIC value (μg/mL) that is less than 8 μg/mL)”.

In the case of `CC(Cc1ccc(-n2ccc(NC(=O)N3CCN(C(=O)C(C)(C)N)CC3)nc2=O)cc1)N1CC2CCC(N)CC2C1` (centres unmarked) [Compound 242], the IC50 in assay [1] (% inhibition @ 1 μM) is 0.5 to 1 µM; in assay [2] (% inhibition @ 1 μM), at least 1 µM. The “Ef + bicarb MIC” value in the assay on E. faecalis (Ef) (setting [6]) is “+ (An MIC (μg/mL) value that is 32 μg/mL or greater)”. Moreover, in the assay on S. aureus (Sa) (setting [6]), the “Sa + bicarb MIC” value is “++ (An MIC value (μg/mL) that is 8 μg/mL or greater and less than 32 μg/mL)”. Moreover, the “Ab + bicarb MIC” value with A. baumannn (Ab) (setting [7]) is “+ (An MIC (μg/mL) value that is 32 μg/mL or greater)”. Moreover, in the assay with P. aeruginosa (Pa) (setting [6]), the “Pa MIC + bicarb” value was “+ (An MIC (μg/mL) value that is 32 μg/mL or greater)”. In addition, in the assay on E. coli (Ec) (setting [6]), the “E. coli + bicarb MIC” value is “+++ (An MIC value (μg/mL) that is less than 8 μg/mL)”.

For the compound `CC(C)(N)C(=O)N1CCN(C(=O)Nc2ccn(-c3ccc(CCN4CCC5(CC4)CC5N)cc3)c(=O)n2)CC1` (centres unmarked) [Compound 94], the IC50 in assay [1] (setting [3]) is under 0.5 µM; in assay [2] (setting [3]), at least 1 µM. Moreover, the MIC with E. faecalis (Ef) (setting [4]) is 8 to 32 µg/mL; in the assay with S. aureus (Sa) (setting [4]), under 8 µg/mL; in the assay with A. baumannn (Ab) (Acinetobacter baumannii) it was over 32 µg/mL; in the assay with P. aeruginosa (Pa) (setting [4]) it was 8 to 32 µg/mL; in the assay on E. coli (Ec) (setting [4]), under 8 µg/mL.

Regarding `CC(C)(N)C(=O)N1CCN(C(=O)Nc2ccn(-c3ccc(CN4C[C@@H]5[C@H](C4)[C@H]5C(N)=O)cc3)c(=O)n2)CC1` [Compound 74], the IC50 in assay [1] (setting [3]) and in assay [2] (setting [3]) was at least 1 µM throughout. Moreover, the MIC in the assay with E. faecalis (Ef) (setting [4]) is over 32 µg/mL; with S. aureus (Sa) (setting [4]), 8 to 32 µg/mL; in the assay with A. baumannn (Ab) (Acinetobacter baumannii), over 32 µg/mL; in the assay on P. aeruginosa (Pa) (setting [4]) it was over 32 µg/mL; in the assay on E. coli (Ec) (setting [4]) it was 8 to 32 µg/mL.

Regarding `N[C@@H]1[C@H]2CN(Cc3ccc(-n4ccc(NC(=O)N5C[C@@H]6[C@@H](N)[C@@H]6C5)nc4=O)cc3)C[C@@H]12` [Compound 249], the IC50 in assay [1] (% inhibition @ 1 μM) and in assay [2] (% inhibition @ 1 μM) was at least 1 µM throughout. Further, the MIC with E. faecalis (Ef) (setting [6]) is over 32 µg/mL; with S. aureus (Sa) (setting [6]) it was over 32 µg/mL; with A. baumannn (Ab) (setting [7]), over 32 µg/mL; in the assay with P. aeruginosa (Pa) (setting [6]) it was over 32 µg/mL; with E. coli (Ec) (setting [6]), 8 to 32 µg/mL.

`CCN(Cc1ccc(-n2ccc(NC(=O)N3CCN(C(=O)C(C)(C)N)CC3)nc2=O)cc1)C12CCC(N)(CC1)CC2` [Compound 172]: the values for the IC50 in assay [1] (% inhibition @ 1 μM) and in assay [2] (% inhibition @ 1 μM) were under 0.5 µM and at least 1 µM, respectively. Moreover, the MIC in the assay with E. faecalis (Ef) (setting [6]) was under 8 µg/mL; in the assay on S. aureus (Sa) (setting [6]), under 8 µg/mL; in the assay with A. baumannn (Ab) (setting [7]), 8 to 32 µg/mL; in the assay on P. aeruginosa (Pa) (setting [6]), over 32 µg/mL; in the assay with E. coli (Ec) (setting [6]) it was under 8 µg/mL.

On to `CC(C)(N)C(=O)N1CCN(C(=O)Nc2ccn(-c3ccc(CN4C5CCC4CC(N)C5)cc3)c(=O)n2)CC1` (centres unmarked) [Compound 59], for which the results for the IC50 in assay [1] (setting [3]) and in assay [2] (setting [3]) were under 0.5 µM and at least 1 µM, respectively. Besides, the “Ef + bicarb MIC” value in the assay with E. faecalis (Ef) (setting [4]) was “+++ (An MIC value (μg/mL) that is less than 8 μg/mL)”. In addition, the “Sa + bicarb MIC” value in the assay with S. aureus (Sa) (setting [4]) was “+++ (An MIC value (μg/mL) that is less than 8 μg/mL)”. The “Ab + bicarb MIC” value with A. baumannn (Ab) (setting [5]) is reported as “+ (An MIC (μg/mL) value that is 32 μg/mL or greater)”. In addition, the “Pa MIC + bicarb” value in the assay with P. aeruginosa (Pa) (setting [4]) is listed as “+ (An MIC (μg/mL) value that is 32 μg/mL or greater)”. Besides, the “E. coli + bicarb MIC” value in the assay on E. coli (Ec) (setting [4]) is “+++ (An MIC value (μg/mL) that is less than 8 μg/mL)”.
